Assay results from patent publication US20200138750A1, “Use of Mustard Seed Oil (Allyl Isothiocyanate) to relieve headache pain” (priority 2018, published 2020).

Tested on: users suffering with headaches
Test: Inhalation of pure AITC vapor through the nostrils by users with headaches
Format: in vivo
Protocol: In the present invention AITC is taken in to its purest form. To treat headache instantly, Purest AITC needs to be inhaled deeply for up to 5 seconds in each nostril. If it is taken correctly, due to its pungency and potency, the vapor of AITC will instantly felt inside on the top of the crown of the user's head.
If AITC is inhaled properly and as directed, most users will be out of irritation in less than 2 minutes.
In current studies we have used pure AITC in above mentioned quantity into small dark thick glass vials with aluminum seal and tight screw caps. The bottles are also very small mouth.

C=CCN=C=S [AITC, Allyl isothiocyanate]
time until users are out of irritation after inhalation (AITC inhaled properly and as directed, most users): less than 2 minutes
nasal mucus, sinus pressure and sinus headache (inhalation): relives sinusitis pressure and sinus headaches
addiction or rebound headaches (inhalation remedy): does not lead to addiction or rebound headaches
side effects (inhalation remedy): does not have any side effects
headache relief (inhalation, users with headaches): headache is also relieved
irritation and lachrymal effect on deep inhalation (inhaled deeply): instantly irritated and most likely get tears from eyes
natural versus synthetic AITC in treating headaches (natural (from mustard seeds, horseradish or wasabi) vs synthetic (99.9% pure)): almost same result in treating headaches
time to relief from headache pain (pure AITC inhaled as directed, most users suffering with headaches): relived from pain in seconds in most cases or up to couple of minutes
